Measurements: US6790447B1, “Peptides for treatment of autoimmune diseases” (priority 1994, dated 2004)

Experiments:
uveitis = experiment: Uveitogenicity after immunization with the peptides; format: in vivo; settings: after immunization of objects with the peptides
Text: Of these peptides B27PD and PDSAg are uveitogenic, i.e., after immunization of objects with the peptides they develop uveitis.

[1] = system: S-antigen-induced uveitis; experiment: S-antigen-induced uveitis after oral administration of antigens (oral tolerance); format: in vivo, Lewis rats; settings: induction with S-antigen; for clinical symptoms reduced to: oral administration, compared to group fed control protein (ovalbumin), peptides 200 μg, proteins 1 mg, three doses every other day; for uveitis reduced by (histological evaluation): oral feeding, compared to ovalbumin fed control groups
Text: (§1) Due to animal protection laws, the experiments were terminated three to four days after the last animals in the positive control groups diseased.
(§2) The histological evaluation consists of a grading of inflammatory signs in the tissue and destruction of the retina, the clinical grading refers to inflammatory signs of the conjunctiva and the anterior segment of the eye, which can be observed readily and are not necessarily correlated with the visual acuity.

IRBP induced uveitis = experiment: IRBP-induced uveitis after oral administration of antigens (oral tolerance); format: in vivo, Lewis rats; settings: induction with IRBP, oral feeding; for clinical symptoms / clinical score for uveitis reduced to: compared to maximal disease in PBS-fed group
Text: as §1, §2

Substance | uveitogenic properties (uveitis) | clinical symptoms reduced to [1] [%] | uveitis reduced by (histological evaluation) [1] [%] | clinical symptoms / clinical score for uveitis reduced to (IRBP induced uveitis) [%] | therapeutic properties (IRBP induced uveitis)
A-L-N-E-D-L-R-S-W-T-A-A-D-T (ALNEDLRSWTAADT) [B7PD, an irrelevant control peptide] | does not have any uveitogenic properties | – | – | – | –
A-L-N-E-D-L-S-S-W-T-A-A-D-T (ALNEDLSSWTAADT) [B27PD, 14 mer peptide of the invention] | uveitogenic | 16 | 57 | 75 | –
F-L-G-E-L-T-S-S-E-V-A-T-E-V (FLGELTSSEVATEV) [PDSAg] | uveitogenic | 9 | 14 | – | no therapeutic properties
IRBP: interphotoreceptor-retinoid-binding protein, retinal protein | – | – | – | 25 | –
